# Experimental data taken from patent US20030181401A1, “Insulin secretion promoter” (KYOWA HAKKO KOGYO CO., LTD., priority 2002, published 2003).
# Where “and” joins values, the source holds several entries; their conditions need not be identical. Equal values may be shown once.
# Legend:
# Type in all cases: in vivo
# [1] = tested on: C57BL/KsJ-db/db Jcl mice (model animals of Type II diabetes mellitus); assay: Test Example 1: serum insulin in glucose tolerance test after 7-day oral dosing
# Method: Male 9-week-old C57BL/KsJ-db/db Jcl (abbreviated as “db/db” hereinafter) mice (Clea Japan, Inc.), which are model animals of Type II diabetes mellitus, were divided in groups each consisting of 6 mice, and fed a commercially available feed CE-2 (Clea Japan, Inc.) for one week, so as to accustom the animals to the environment.
# After acclimation, an aqueous 10% solution of 2′-fucosyllactose (sometimes abbreviated as “2′-FL” hereinafter) was orally administered to the mice at 200 mg (2′-FL)/kg body weight in the morning and at 300 mg (2′-FL) /kg body weight in the evening. The same volume of Saline was administered to the control group. The aqueous 2′-FL solution and the saline were both dosed daily to the mice for 7 days.
# During the dosing period, CE-2 was-given together with drinking water ad libitum.
# After 18-hour starvation from the final dosing on day 7, an aqueous 40% glucose solution was orally administered to 2 g (glucose)/kg body weight to the mice, to perform glucose tolerance test. Zero minute and 30 minutes after glucose loading, blood was taken from tail vein. […] Blood was centrifuged (4° C., 10000 rpm, 10 minutes), to obtain serum.
# Insulin in the serum recovered was assayed by enzyme immunoassay using Lebis Insulin kit (for rats-T) (Shibayagi, Co., Ltd.) as follows. The kit reacts with insulin in the sera of both rats and mice.
# First, the serum recovered was diluted with the buffer attached to the kit to 5 fold. 10 μl of the diluted serum was taken and divided in the wells of the antibody-immobilized plate into which 100 μl of a biotin-bound anti-insulin antibody was added, for reaction at ambient temperature for 2 hours. After the reaction, the plate was rinsed four times with the rinse solution attached to the kit. After rinsing, 100 μl of the peroxidase-avidin bound material was divided in the wells, for reaction at ambient temperature for 30 minutes. After reaction, the plate was rinsed four times with the rinse solution. After rinsing, 100 μl of the chromogenic solution was divided in the wells, for chromogenic reaction for 30 minutes, followed by addition of 100 μl of the reaction termination solution to each well. The absorbance of the reaction solution in the wells at 450 nm was read with a plate reader.
# Herein, a standard curve was prepared by using the 200 ng/ml standard insulin solution (rat) attached to the kit as a standard solution to dilute the standard solution appropriately with the buffer solution attached to the kit for the same reaction as for the serum, and plotting the relation between the concentration and the absorbance (450 nm).
# Based on the prepared standard curve and the absorbance from the reaction with the serum, the insulin concentration in the serum was determined.
# [2] = tested on: ICR mice; assay: Test Example 7: serum insulin after intravenous 2′-FL dosing without glucose loading
# Method: Groups of male 9-week-old ICR mice (Japan SLC, Inc.) each consisting of 7 mice were fed a commercially available CE-2 (Clea Japan, Inc.) for one week, so as to accustom the mice to the environment. Thereafter, an aqueous 1% solution of 2′-FL was intravenously administered to the mice to 50 mg (2′-FL)/kg body weight. The same volume of saline was administered to the control group. Zero minute and 30 minutes after dosing, blood was taken from a tail vein. […] Blood was centrifuged (4° C., 10000 rpm, 10 minutes), to obtain serum.
# Insulin in the serum recovered was assayed by enzyme immunoassay using Lebis Insulin kit (for mice-T) (Shibayagi, Co., Ltd.) in the same manner as in the Test Example 2.
# [3] = tested on: STZ-induced diabetic rats (Wistar); assay: Test Example 9: blood glucose in glucose tolerance test, Type I diabetes mellitus model
# Method: Male 7-week-old Wistar rats (Japan SLC, Inc.) were fed CE-2 (Clea Japan, Inc.) for one week, so as to accustom the rats to the environment.
# After 18-hour starvation of the accustomed rats, […] of 50 mM citrate buffer, pH 4.5containing 15 mg of streptozotocin (WAKO Pure Chemical Industries, Inc.; abbreviated as “STZ” hereinafter) was prepared and administered to 25 mg (STZ)/kg body weight from their tail vein. Five days after the STZ administration, the rats were fasted for 18 hours. Blood was taken from puncture in the tail vein to assay blood glucose with a simple-type blood glucose assay apparatus Medisafe Reader GR-101 (Terumo, Co., Ltd.), to select 5 rats (Nos. 1, 3, 4, 5, 8) at mild state of diabetes mellitus with a blood glucose level of 200 mg/dl or less.
# An aqueous 2% solution of 2′-fucosyllactose was prepared and administered to the rat No. 1 from the tail vein to 50 mg/kg body weight on a 2′-FL dose basis. 0.9% physiological saline was administered to rats Nos. 3, 4, 5 and 8. Two hours after 2′-FL dosing, an aqueous 40% glucose solution was orally administered to 1 g/kg body weight to the rats for glucose tolerance test. Zero minute and 30, 60, 120, and 240 minutes after glucose loading, blood was taken from a tail vein, to assay blood glucose with Medisafe Reader GR-101 and collect the serum.
# 12 days after the STZ dosing, the rats were fasted for 18 hours. An aqueous 2% solution of 2′-FL at 50 mg (2′-FL)/kg body weight was administered to rats Nos. 3, 4, 5 and 8 on a 2′-FL dose basis through their tail veins. To the rat No. 1 was administered 0.9% physiological saline. Two hours after 2′-FL dosing, an aqueous 40% glucose solution was orally administered to 1 g (glucose)/kg body weight to the rats, for glucose tolerance test. Zero minute and 30, 60, 120, and 240 minutes after glucose loading, blood was taken from a tail vein, to assay blood glucose with Medisafe Reader GR-101 and collect the serum.
substance,measurement,setting,value
2′-fucosyllactose [2′-FL],insulin concentration after glucose loading compared with the control group (in words),[1]; continuous daily oral dosing,increased
same,"Serum insulin concentration after glucose loading, Zero minute","[1]; oral 200 mg/kg morning + 300 mg/kg evening, 7 days, 18-hour starvation, glucose 2 g/kg oral, zero minute, mean ± SD",6.7 ± 3.3 ng/mL
same,"Serum insulin concentration after glucose loading, 30 minutes","[1]; oral 200 + 300 mg/kg daily, 7 days, glucose 2 g/kg oral, 30 minutes, mean ± SD",8.3 ± 3.9 ng/mL
same,"Serum insulin concentration after glucose loading, 120 minutes","[1]; oral 200 + 300 mg/kg daily, 7 days, glucose 2 g/kg oral, 120 minutes, mean ± SD",26.1 ± 12.8 ng/mL
same,"Serum insulin concentration after 2′-FL dosing, 30 minutes","[2]; 50 mg/kg intravenous, no glucose loading, 30 minutes after dosing, mean ± SD",168.6 ± 40.2 pg/mL
same,"Serum insulin concentration after 2′-FL dosing, 120 minutes","[2]; 50 mg/kg intravenous, no glucose loading, 120 minutes after dosing, mean ± SD",2035.9 ± 1098.0 pg/mL
same,serum insulin concentration compared with the control group (in words),[2]; intravenous 2′-FL dosing,increased
same,increase of blood glucose level (in words),"[3]; STZ-induced diabetic rats, glucose loading 2 hours after intravenous dosing",suppressed
same,"Blood glucose level after glucose loading, 0 minute","[3]; individual STZ rats Nos. 1, 3, 4, 5, 8, 50 mg/kg intravenous two hours before glucose 1 g/kg oral, 0 minute, 50 mg/kg",135 mg/dL and 186 mg/dL and 97 mg/dL and 134 mg/dL and 138 mg/dL
same,"Blood glucose level after glucose loading, 30 minutes","[3]; individual STZ rats Nos. 1, 3, 4, 5, 8, 50 mg/kg intravenous two hours before glucose 1 g/kg oral, 30 minutes, 50 mg/kg",167 mg/dL and 273 mg/dL and 237 mg/dL and 162 mg/dL and 152 mg/dL
same,"Blood glucose level after glucose loading, 60 minutes","[3]; individual STZ rats Nos. 1, 3, 4, 5, 8, 50 mg/kg intravenous two hours before glucose 1 g/kg oral, 60 minutes, 50 mg/kg",172 mg/dL and 355 mg/dL and 253 mg/dL and 154 mg/dL and 158 mg/dL
same,"Blood glucose level after glucose loading, 120 minutes","[3]; individual STZ rats Nos. 1, 3, 4, 5, 8, 50 mg/kg intravenous two hours before glucose 1 g/kg oral, 120 minutes, 50 mg/kg",181 mg/dL and 342 mg/dL and 224 mg/dL and 161 mg/dL and 136 mg/dL
same,"Blood glucose level after glucose loading, 240 minutes","[3]; individual STZ rats Nos. 1, 3, 4, 5, 8, 50 mg/kg intravenous two hours before glucose 1 g/kg oral, 240 minutes, 50 mg/kg",146 mg/dl and 328 mg/dl and 139 mg/dl (2×) and 50 mg/dl
same,"Blood glucose level after glucose loading, −120 minutes","[3]; individual STZ rats Nos. 1, 3, 4, 5, 8, 50 mg/kg intravenous two hours before glucose 1 g/kg oral, −120 minutes, 50 mg/kg",108 mg/dL and 197 mg/dL and 122 mg/dL and 121 mg/dL and 117 mg/dL
